Patent US20120322869A1, “ESTER COMPOUND AND USE THEREOF” (SUMITOMO CHEMICAL COMPANY, LIMITED, priority 2010, published 2012)

Experiments:
[1] = tested on: German cockroaches (Blattella germanica); test: Spray knock-down test with 0.1% (w/v) oil solution on German cockroaches (Test Example 2); format: in vivo; conditions: adult Blattella germanica, 1.5 ml of 0.1% (w/v) oil solution sprayed
Experimental: Zero point one (0.1) part of the compound of the present inventions (1) and (2) was dissolved in 10 parts of isopropyl alcohol and the solution was mixed with 89.9 parts of deodorized kerosene to prepare a 0.1% (w/v) oil solution.
Ten adult German cockroaches (Blattella germanica, 5 males and 5 females) were released in a test container (diameter 8.75 cm, 7.5 cm high, the bottom face is made of 16 mesh metallic wire), the inner face on which butter was applied, and the container was set at the bottom of a test chamber (bottom face: 46 cm×46 cm, height: 70 cm).
Each 1.5 ml of the oil solution of the compound of the present invention (1) and (2) was sprayed using a spray gun at a pressure of 0.4 kg/cm^2 from 60 cm higher than the upper face of the container. Thirty seconds after the spraying, the container was pulled out from the chamber. Two minutes after spraying, the number of knocked-down […] was counted and a knock-down ratio was determined. A knocked-down ratio was calculated by the following equation.
Knocked-down ratio=(Number of knocked-down cockroaches/Number of test cockroaches)×100

[2] = tested on: American cockroaches (Periplaneta americana); test: Spray knock-down test with 0.1% (w/v) oil solution on American cockroaches (Test Example 1); format: in vivo; conditions: adult Periplaneta americana, 1.5 ml of 0.1% (w/v) oil solution sprayed
Experimental: Zero point one (0.1) part of the compound of the present inventions (1) was dissolved in 10 parts of isopropyl alcohol and the solution was mixed with 89.9 parts of deodorized kerosene to prepare a 0.1% (w/v) oil solution.
Six adult American cockroaches (Periplaneta americana, 3 males and 3 females) were released in a test container (diameter 12.5 cm, 10 cm high, the bottom face is made of 16 mesh metallic wire), the inner face on which butter was applied, and the container was set at the bottom of a test chamber (bottom face: 46 cm×46 cm, height: 70 cm). Each 1.5 ml of the oil solution of the compound of the present invention (1) was sprayed using a spray gun at a pressure of 0.4 kg/cm^2 from 60 cm higher than the upper face of the container. Thirty seconds after the spraying, the container was pulled out from the chamber. After a prescribed time, the number of knocked-down cockroaches was counted and a knock-down ratio was determined (repeated twice). The knocked-down ratio was calculated by the following equation.
Knocked-down ratio (%) (Number of knocked-down cockroaches/Number of test cockroaches)×100

Compound | Knock-down ratio (%) 2 minutes after spraying [1] | Knock-down ratio (%) 5 minutes after spraying [2]
C=CCC1=C(C)C(OC(=O)[C@@H]2[C@@H](C=C(C#N)SC)C2(C)C)CC1=O (relative stereo) [compound of the present invention (2), 2-methyl-3-(2-propenyl)cyclopent-2-en-4-on-1-yl=(1R)-trans-3-[(1EZ)-2-cyano-2-(methylthio)ethenyl]-2,2-dimethylcyclopropanecarboxylate] | 100% | –
C#CCC1=C(C)[C@@H](OC(=O)[C@@H]2[C@@H](/C=C(\C#N)SC)C2(C)C)CC1=O [compound of the present invention (1), (S)-2-methyl-3-(2-propynyl)cyclopent-2-en-4-on-1-yl=(1R)-trans-3-[(1E)-2-cyano-2-(methylthio)ethenyl]-2,2-dimethylcyclopropane carboxylate] | 100% | 100%
